Read-outs that look alike come from different tables or passages of the source.
What was measured:
[1] = target: NDM-1 (Klebsiella pneumoniae, UniProt C7C422); experiment: biochemical; assay type: biochemical; conditions: fluorescence assay, CCF2-FA substrate, 1 pM enzyme, 2 hours at 25° C.; read-out: NDM-1 IC50
Outline: (§1)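 Semi-log dose-response curves, fitted with a 4-parameter model, gave IC50s. The underlying signal was CCF2-FA fluorescence following 2 hours at 25° C with enzyme, substrate and inhibitor combined.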

[2] = target: IMP-1 (Serratia marcescens, UniProt P52699); experiment: biochemical; assay type: biochemical; conditions: fluorescence assay, CCF2-FA substrate, 2 pM enzyme, 2 hours at 25° C.; read-out: IMP-1 IC50
Outline: as §1

[3] = system: Pseudomonas aeruginosa MB9798 vs MB9799
Outline: (§2)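 Steps: add fixed imipenem and/or ceftazidime (usually CLSI breakpoint) and fixed AmpC-directed class A/C inhibitor to microbroth MIC wells; titrate MBL inhibitor; record concentration regaining susceptibility for each PAO1-derived strain; divide efflux+ by efflux− value.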

[4] = target: VIM-1 (Pseudomonas aeruginosa (strain ATCC 15692 / DSM 22644 / CIP 104116 / JCM 14847 / LMG 12228 / 1C / PRS 101 / PAO1), UniProt A0A0F7KYQ8); experiment: biochemical; conditions: CCF2-FA substrate, 30 pM enzyme, 2 hours at 25° C.
Outline: as §1

[5] = system: Pseudomonas aeruginosa efflux− (MB9799), IMP-1; assay type: cell-based; conditions: C, D serine β-lactamase inhibitor closely related to relebactam; for P. aeruginosa expressing IMP-1, efflux − (MB9799) MITC95: concentration restoring susceptibility to imipenem at 2 μg/mL in the presence of a class A; for Concentration of metallo-β-lactamase inhibitor which restores susceptibility of efflux − (MB9799) strain to imipenem: imipenem at 2 μg/mL, in the presence of a class A
Outline: as §2

[6] = system: Serratia marcescens expressing IMP-1 (CL5741); assay type: cell-based; conditions: for Serratia marcescens expressing IMP-1 (CL5741) MITC95: with imipenem 1 μg/ml; for Serratia marcescens MITC95: IMP-1 strain CL5741, with imipenem 1 μg/ml
Outline: (§3)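 Clinical isolates (E. coli NDM-1, S. marcescens IMP-1, K. pneumoniae VIM-1) were diluted 1:100 from saline suspension into 1.1×CAMHB and exposed to test compound with imipenem at 1 μg/ml. Plates were incubated at 35° C for 22 hours to 24 hours, and growth was read by absorbance.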

[7] = system: Escherichia coli expressing NDM-1 (CLB30005, CLB30016); assay type: cell-based; conditions: with imipenem 1 μg/ml; for Escherichia coli MITC95: NDM-1 strain
Outline: as §3

[8] = system: Klebsiella pneumoniae expressing VIM-1 (IHMA599644); assay type: cell-based; conditions: for Klebsiella pneumoniae expressing VIM-1 (IHMA599644) MITC95: with imipenem 1 μg/ml; for Klebsiella pneumoniae MITC95: VIM-1 strain IHMA599644, with imipenem 1 μg/ml
Outline: as §3

[9] = system: Pseudomonas aeruginosa efflux+ (MB9798), IMP-1; assay type: cell-based; design: Concentration of metallo-β-lactamase inhibitor which restores susceptibility of efflux + (MB9798) strain to imipenem: unit not given here; conditions: C, D serine β-lactamase inhibitor closely related to relebactam; for P. aeruginosa expressing IMP-1, efflux + (MB9798) MITC95: concentration restoring susceptibility to imipenem at 2 μg/mL in the presence of a class A; for Concentration of metallo-β-lactamase inhibitor which restores susceptibility of efflux + (MB9798) strain to imipenem: imipenem at 2 μg/mL, in the presence of a class A
Outline: as §2

[10] = ratio MITC95 PA_9798/MITC95 PA_9799
[11] = fluorescence assay, read-out: VIM-1 IC50
[12] = 95% inhibition of bacterial growth
[13] = fold difference between efflux+ (MB9798) and efflux− (MB9799) strains, imipenem at 2 μg/mL

Sequence of IMP-1 (P52699 whole entry, looked up, species assumed): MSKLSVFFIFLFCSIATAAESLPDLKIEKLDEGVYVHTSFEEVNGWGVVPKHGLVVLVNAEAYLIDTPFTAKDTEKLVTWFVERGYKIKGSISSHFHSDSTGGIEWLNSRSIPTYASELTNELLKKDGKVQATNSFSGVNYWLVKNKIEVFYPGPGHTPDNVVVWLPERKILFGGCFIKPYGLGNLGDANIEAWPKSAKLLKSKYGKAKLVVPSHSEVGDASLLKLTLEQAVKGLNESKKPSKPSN
Sequence of NDM-1 (C7C422 whole entry, looked up, species assumed): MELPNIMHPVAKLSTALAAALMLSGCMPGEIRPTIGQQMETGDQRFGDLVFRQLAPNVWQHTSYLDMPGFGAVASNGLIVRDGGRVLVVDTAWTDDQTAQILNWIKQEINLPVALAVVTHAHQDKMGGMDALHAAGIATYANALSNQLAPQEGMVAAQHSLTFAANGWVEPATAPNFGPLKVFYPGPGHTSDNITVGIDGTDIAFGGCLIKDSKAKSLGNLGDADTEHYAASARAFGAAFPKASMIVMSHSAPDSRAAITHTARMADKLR

| SMILES | IC50 [1] [nM] | IC50 [2] [nM] | Efflux ratio [3, 10] | IC50 [4, 11] [nM] | P. aeruginosa expressing IMP-1, efflux − (MB9799) MITC95 [5] [µM] | Serratia marcescens expressing IMP-1 (CL5741) MITC95 [6, 12] [µM] | Escherichia coli expressing NDM-1 (CLB30016) MITC95 [7, 12] [µM] | Klebsiella pneumoniae expressing VIM-1 (IHMA599644) MITC95 [8, 12] [µM] | P. aeruginosa expressing IMP-1, efflux + (MB9798) MITC95 [9] [µM] | IC50 ([4]; VIM-1 IC50, fluorescence assay) [nM] | Efflux ratio [3, 13] | Concentration of metallo-β-lactamase inhibitor which restores susceptibility of efflux − (MB9799) strain to imipenem [5] | Serratia marcescens MITC95 [6, 12] [µM] | Escherichia coli MITC95 [7, 12] [µM] | Klebsiella pneumoniae MITC95 [8, 12] [µM] | Concentration of metallo-β-lactamase inhibitor which restores susceptibility of efflux + (MB9798) strain to imipenem [9] | Serratia marcescens MITC95 ([6]; 95% inhibition of growth) [µM] | Escherichia coli MITC95 ([7]; 95% inhibition of growth) [µM] | Klebsiella pneumoniae MITC95 ([8]; 95% inhibition of growth) [µM] |
| --- | --- | --- | --- | --- | --- | --- | --- | --- | --- | --- | --- | --- | --- | --- | --- | --- | --- | --- | --- |
| Nc1nc2c(-c3ccc(S(=O)(=O)NCC4CCC(=O)N4)c(S(N)(=O)=O)c3-c3nnn[nH]3)cccc2s1 (stereo not drawn) [Example 19, 4-(2-amino-1,3-benzothiazol-4-yl)-N1-[(5-oxopyrrolidin-2-yl)methyl]-3-(1H-tetrazol-5-yl)benzene-1,2-disulfonamide] | 0.0953 | 0.486 | 1.00 | 0.335 | 6.25 | 6.25 | 50 | 25 | 6.25 | – | – | – | – | – | – | – | – | – | – |
| Nc1nc2c(-c3ccc(S(=O)(=O)N[C@H]4CN[C@@H](CO)C4)c(S(N)(=O)=O)c3-c3nnn[nH]3)cccc2[nH]1 [Example 173, 4-(2-amino-1H-benzo[d]imidazol-4-yl)-N^1-((3R,5R)-5-(hydroxymethyl)pyrrolidin-3-yl)-3-(1H-tetrazol-5-yl)benzene-1,2-disulfonamide] | 0.0948 | 0.933 | 1.00 | – | 1.563 | 0.7813 | 0.7813 | 3.125 | 1.563 | 0.284 | – | – | – | – | – | – | – | – | – |
| Nc1nc2c(-c3ccc(S(=O)(=O)NCC4(N)CC4)c(S(N)(=O)=O)c3-c3nn[nH]n3)cccc2s1 [Example 149, 4-(2-aminobenzo[d]thiazol-4-yl)-N1-((1-aminocyclopropyl)methyl)-3-(2H-tetrazol-5-yl)benzene-1,2-disulfonamide] | 0.216 | 0.993 | 1.00 | 0.739 | 3.125 | 6.25 | 12.5 | 6.25 | 3.125 | – | – | – | – | – | – | – | – | – | – |
| Cn1c(N)nc2c(-c3ccc(S(=O)(=O)N4CCNCC4)c(S(N)(=O)=O)c3-c3nn[nH]n3)cccc21 [Example 158, 3-(2-amino-1-methyl-1H-benzo[d]imidazol-4-yl)-6-(piperazin-1-ylsulfonyl)-2-(2H-tetrazol-5-yl)benzenesulfonamide] | 0.601 | 1.71 | 3.51 | – | 0.8906 | 0.8906 | 0.25 | 1.781 | 3.125 | 1.27 | – | – | – | – | – | – | – | – | – |
| Cl.Cl.NCCCNS(=O)(=O)c1ccc(-c2ccc(N)nc2)c(-c2nn[nH]n2)c1S(N)(=O)=O [Example 496, N1-(3-aminopropyl)-4-(6-aminopyridin-3-yl)-3-(2H-tetrazol-5-yl)benzene-1,2-disulfonamide hydrogen chloride] | 0.2 | 0.576 | – | 0.175 | – | – | – | – | – | – | 1.00 | 0.7813 | 0.7813 | 0.09766 | 1.563 | 0.7813 | – | – | – |
| Nc1nc2c(-c3ccc(S(=O)(=O)NC4CC5CNC4C5)c(S(N)(=O)=O)c3-c3nnn[nH]3)cccc2s1 (stereo not drawn) [Example 89, 4-(2-aminobenzo[d]thiazol-4-yl)-N^1-(2-azabicyclo[2.2.1]heptan-6-yl)-3-(1H-tetrazol-5-yl)benzene-1,2-disulfonamide] | 0.0581 | 0.568 | 1.00 | 0.23 | 1.563 | 3.125 | 6.25 | 6.25 | 1.563 | – | – | – | – | – | – | – | – | – | – |
| NC[C@@H](N)CNS(=O)(=O)c1ccc(-c2ccc(N)nc2)c(-c2nn[nH]n2)c1S(N)(=O)=O [Example 416] | 0.917 | 1.34 | – | 0.68 | – | – | – | – | – | – | 1.00 | 3.125 | – | – | – | 3.125 | 1.563 | 0.3906 | 6.25 |
| NCCNS(=O)(=O)c1ccc(-c2cccc3[nH]c(N)nc23)c(-c2nn[nH]n2)c1S(N)(=O)=O [Example 12, 4-(2-amino-1H-benzo[d]imidazol-4-yl)-N^1-(2-aminoethyl)-3-(2H-tetrazol-5-yl)benzene-1,2-disulfonamide] | 0.0429 | 0.316 | 0.75 | – | 0.5 | 0.6302 | 0.25 | 0.5703 | 0.375 | 0.102 | – | – | – | – | – | – | – | – | – |
| NCCNS(=O)(=O)c1ccc(-c2ccc(N)nc2)c(-c2nn[nH]n2)c1S(N)(=O)=O [Example 196, N^1-(2-aminoethyl)-4-(6-aminopyridin-3-yl)-3-(2H-tetrazol-5-yl)benzene-1,2-disulfonamide] | 0.328 | 0.479 | 1.00 | 0.218 | 0.7656 | 0.2969 | 0.03125 | 1.336 | 0.7656 | – | – | – | – | – | – | – | – | – | – |
| NCc1csc(Nc2cccc(-c3ccc(S(=O)(=O)N[C@@H]4CCNC4)c(S(N)(=O)=O)c3-c3nn[nH]n3)c2)n1 [Example 290, (R)-3′-((4-(aminomethyl)thiazol-2-yl)amino)-N4-(pyrrolidin-3-yl)-2-(2H-tetrazol-5-yl)-[1,1′-biphenyl]-3,4-disulfonamide] | 0.0873 | 0.448 | 2.00 | – | 0.3906 | – | – | – | 0.7813 | 0.104 | – | – | – | – | – | – | 0.7813 | 0.1953 | 0.7813 |
